Literature values as cited in US7989624B2, “Aryl spirolactam CGRP receptor antagonists” (Merck Sharp & Dohme Corp., priority 2004, dated 2011).
Where no end group is shown, it is not given here.

Columns and labels:
marmoset = conditions: electrical stimulation of the trigeminal ganglion
migraine = conditions: clinical studies, intravenously administered
rat = conditions: trigeminal ganglion stimulation
rats = conditions: electrical stimulation of the dura mater, prior administration

In the case of `NCCCC[C@H](NC(=O)[C@@H](Cc1cc(Br)c(O)c(Br)c1)NC(=O)N1CCC(N2Cc3ccccc3NC2=O)CC1)C(=O)N1CCN(c2ccncc2)CC1` [BIBN4096BS], the “increase in facial blood flow” value (marmoset) is listed as “could be blocked” and the “acute treatment for migraine” value (migraine) is listed as “safe and effective”.
In the case of “CGRP(8-37): a fragment of CGRP that lacks seven N-terminal amino acid residues; a peptide CGRP antagonist (VTHRLAGLLSRSGGVVKNNFVPTNVGSKAF; ends and bridges not checked; UniProt P06881 90-119, looked up, fragment)”, the “increased facial blood flow” value (rat) is listed as “inhibited” and the “increase of the diameter of the middle meningeal artery” value (rats) is listed as “blocked”.
